Assay results taken from PubChem BioAssay (NCI).
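In this assay, cells in 96-well plates receive the compound at five concentrations for 48 hours. Endpoints are linearly interpolated between the surrounding concentrations. TGI: concentration producing complete growth inhibition.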 The source made the active and inactive calls. Cut-off read from the data, not from the text of the source: active = GI50 below about 0.43 µM; inactive = the rest.

Assays:
Test in all cases: NCI anticancer screen, dose series, 48 h
[1] = tested on: 786-0 renal
[2] = tested on: A498 renal
[3] = tested on: A549 NSCLC
[4] = tested on: ACHN renal
[5] = tested on: BT-549 breast
[6] = tested on: CAKI-1 renal
[7] = tested on: CCRF-CEM leukemia
[8] = tested on: COLO 205 colon
[9] = tested on: DU-145 prostate
[10] = tested on: EKVX NSCLC
[11] = tested on: HCC-2998 colon
[12] = tested on: HCT-116 colon
[13] = tested on: HCT-15 colon
[14] = tested on: HL-60(TB) leukemia
[15] = tested on: HOP-62 NSCLC
[16] = tested on: HOP-92 NSCLC
[17] = tested on: HS 578T breast
[18] = tested on: HT29 colon
[19] = tested on: IGROV1 ovarian
[20] = tested on: K-562 leukemia
[21] = tested on: KM12 colon
[22] = tested on: LOX IMVI melanoma
[23] = tested on: M14 melanoma
[24] = tested on: MALME-3M melanoma
[25] = tested on: MCF7 breast
[26] = tested on: MDA-MB-231 breast
[27] = tested on: MDA-MB-435
[28] = tested on: MDA-N
[29] = tested on: MOLT-4 leukemia
[30] = tested on: NCI-H226 lung
[31] = tested on: NCI-H23 lung
[32] = tested on: NCI-H460 lung
[33] = tested on: NCI-H522 lung
[34] = tested on: NCI/ADR-RES ovarian
[35] = tested on: OVCAR-3 ovarian
[36] = tested on: OVCAR-4 ovarian
[37] = tested on: OVCAR-5 ovarian
[38] = tested on: OVCAR-8 ovarian
[39] = tested on: PC-3 prostate
[40] = tested on: RPMI-8226 leukemia
[41] = tested on: RXF 393 renal
[42] = tested on: SF-268 CNS
[43] = tested on: SF-295 CNS
[44] = tested on: SF-539 CNS
[45] = tested on: SK-MEL-2 melanoma
[46] = tested on: SK-MEL-28 melanoma
[47] = tested on: SK-MEL-5 melanoma
[48] = tested on: SK-OV-3 ovarian
[49] = tested on: SN12C renal
[50] = tested on: SNB-19 CNS
[51] = tested on: SNB-75 CNS
[52] = tested on: SR leukemia
[53] = tested on: SW-620 colon
[54] = tested on: T-47D breast
[55] = tested on: TK-10 renal
[56] = tested on: U251 CNS
[57] = tested on: UACC-257 melanoma
[58] = tested on: UACC-62 melanoma
[59] = tested on: UO-31 renal

With `O=C(NC(N1CCN(c2cc3c(cc2F)c(=O)c(C(=O)O)cn3C2CC2)CC1)(C(F)(F)F)C(F)(F)F)c1ccccc1` the TGI [1] was > 100 µM, the TGI [2] was 94.4 µM and the TGI [3] was > 100 µM. The TGI [4] was > 100 µM, the TGI [5] was > 100 µM and the TGI [6] was 85.4 µM. The TGI [7] was 72.3 µM, the TGI [8] was 34.8 µM and the TGI [9] was > 100 µM. The TGI [10] was > 100 µM, the TGI [11] was 66 µM and the TGI [12] was > 100 µM. The TGI [13] was 61.6 µM, the TGI [14] was 53.8 µM and the TGI [15] was > 100 µM. For the same compound, the TGI [16] was 93.3 µM, the TGI [17] was > 100 µM and the TGI [18] was > 100 µM. The TGI [19] was > 100 µM, the TGI [20] was > 100 µM and the TGI [21] was 84.4 µM. The TGI [22] was > 100 µM, the TGI [23] was > 100 µM and the TGI [24] was 77.5 µM. For the same compound, the TGI [25] was > 100 µM, the TGI [26] was 70.6 µM and the TGI [27] was > 100 µM. For the same compound, the TGI [28] was > 100 µM, the TGI [29] was 62 µM and the TGI [30] was > 100 µM. For the same compound, the TGI [31] was 89.2 µM, the TGI [32] was > 100 µM and the TGI [33] was 38.7 µM. For the same compound, the TGI [34] was > 100 µM, the TGI [35] was 96.1 µM and the TGI [36] was > 100 µM. The TGI [37] was 65.4 µM, the TGI [38] was > 100 µM and the TGI [39] was > 100 µM. For the same compound, the TGI [40] was 69.9 µM, the TGI [41] was > 100 µM and the TGI [42] was > 100 µM. For the same compound, the TGI [43] was > 100 µM, the TGI [44] was 80.8 µM and the TGI [45] was > 100 µM. The TGI [46] was > 100 µM, the TGI [47] was 62.9 µM and the TGI [48] was 94.1 µM. For the same compound, the TGI [49] was > 100 µM, the TGI [50] was > 100 µM and the TGI [51] was > 100 µM. For the same compound, the TGI [52] was 87.2 µM, the TGI [53] was > 100 µM and the TGI [54] was > 100 µM. For the same compound, the TGI [55] was 87.4 µM, the TGI [56] was > 100 µM and the TGI [57] was 80.8 µM. For the same compound, the TGI [58] was > 100 µM and the TGI [59] was 81.5 µM.
`CCCC(=O)OCC(COC(=O)CCC)OC(=O)CCC` was tested, and the TGI [1] was > 100 µM, the outcome [1] was “inactive” and the TGI [2] was > 100 µM. For the same compound, the outcome [2] was “inactive”, the TGI [3] was > 100 µM and the outcome [3] was “inactive”. For the same compound, the TGI [4] was > 100 µM, the outcome [4] was “inactive” and the TGI [5] was > 100 µM. For the same compound, the TGI [6] was > 100 µM, the outcome [6] was “inactive” and the TGI [7] was > 100 µM. For the same compound, the outcome [7] was “inactive”, the TGI [8] was > 100 µM and the outcome [8] was “inactive”. For the same compound, the TGI [9] was > 100 µM, the outcome [9] was “inactive” and the TGI [10] was > 100 µM. The outcome [10] was “inactive”, the TGI [11] was > 100 µM and the outcome [11] was “inactive”. The TGI [12] was > 100 µM, the outcome [12] was “inactive” and the TGI [13] was > 100 µM. The outcome [13] was “inactive”, the TGI [14] was 90.7 µM and the outcome [14] was “inactive”. The TGI [15] was > 100 µM, the outcome [15] was “inactive” and the TGI [16] was > 100 µM. The TGI [17] was > 100 µM, the outcome [17] was “inactive” and the TGI [18] was > 100 µM. The outcome [18] was “inactive”, the TGI [19] was > 100 µM and the TGI [20] was > 100 µM. For the same compound, the outcome [20] was “inactive”, the TGI [21] was > 100 µM and the outcome [21] was “inactive”. The TGI [22] was > 100 µM, the outcome [22] was “inactive” and the TGI [23] was > 100 µM. For the same compound, the outcome [23] was “inactive”, the TGI [24] was > 100 µM and the outcome [24] was “inactive”. The TGI [25] was > 100 µM, the outcome [25] was “inactive” and the TGI [26] was > 100 µM. The outcome [26] was “inactive”, the TGI [27] was > 100 µM and the outcome [27] was “inactive”. For the same compound, the TGI [28] was > 100 µM, the outcome [28] was “inactive” and the TGI [29] was > 100 µM. The outcome [29] was “inactive”, the TGI [30] was > 100 µM and the outcome [30] was “inactive”. For the same compound, the TGI [31] was > 100 µM, the outcome [31] was “inactive” and the TGI [32] was > 100 µM. For the same compound, the outcome [32] was “inactive”, the TGI [33] was > 100 µM and the TGI [34] was 88.6 µM. The outcome [34] was “inactive”, the TGI [35] was > 100 µM and the TGI [36] was > 100 µM. The outcome [36] was “inactive”, the TGI [37] was > 100 µM and the TGI [38] was > 100 µM. The outcome [38] was “inactive”, the TGI [39] was > 100 µM and the outcome [39] was “inactive”. For the same compound, the TGI [40] was > 100 µM, the outcome [40] was “inactive” and the TGI [41] was > 100 µM. For the same compound, the TGI [42] was > 100 µM, the outcome [42] was “inactive” and the TGI [43] was > 100 µM. The outcome [43] was “inactive”, the TGI [44] was > 100 µM and the outcome [44] was “inactive”. For the same compound, the TGI [45] was > 100 µM, the outcome [45] was “inactive” and the TGI [46] was > 100 µM. For the same compound, the outcome [46] was “inactive”, the TGI [47] was > 100 µM and the outcome [47] was “inactive”. For the same compound, the TGI [48] was > 100 µM, the outcome [48] was “inactive” and the TGI [49] was > 100 µM. The outcome [49] was “inactive”, the TGI [50] was > 100 µM and the outcome [50] was “inactive”. The TGI [51] was > 100 µM, the outcome [51] was “inactive” and the outcome [52] was “inactive”. For the same compound, the TGI [53] was > 100 µM, the outcome [53] was “inactive” and the TGI [54] was > 100 µM. The TGI [55] was > 100 µM, the outcome [55] was “inactive” and the TGI [56] was > 100 µM. For the same compound, the outcome [56] was “inactive”, the TGI [57] was > 100 µM and the outcome [57] was “inactive”. For the same compound, the TGI [58] was > 100 µM, the TGI [59] was > 100 µM and the outcome [59] was “inactive”.
`C=C1C(=O)O[C@@H]2C[C@@H]3[C@]4(CC[C@]5(C)[C@@H]([C@H](C)CC/C=C(\C)C=O)CC[C@@]35C)C[C@]4(CCC(=O)OC)[C@H]12` was tested, and the TGI [1] was 3.23 µM, the TGI [2] was 5.33 µM and the TGI [3] was 13.9 µM. It also gave a TGI [4] of 3.89 µM, a TGI [5] of 5.01 µM and a TGI [6] of 6.7 µM. For the same compound, the TGI [7] was 0.617 µM, the TGI [8] was 5.64 µM and the TGI [9] was 3.31 µM. For the same compound, the TGI [10] was 7.55 µM, the TGI [11] was 4.1 µM and the TGI [12] was 2.03 µM. It also gave a TGI [13] of 3.71 µM, a TGI [14] of 1.29 µM and a TGI [15] of 4.21 µM. The TGI [16] was 3.88 µM, the TGI [17] was 6.77 µM and the TGI [18] was 11 µM. It also gave a TGI [19] of 4.63 µM, a TGI [20] of 2.67 µM and a TGI [21] of 3.89 µM. It also gave a TGI [22] of 2.61 µM, a TGI [23] of 2.91 µM and a TGI [24] of 3.05 µM. The TGI [25] was 2.9 µM, the TGI [26] was 3.66 µM and the TGI [27] was 3.16 µM. It also gave a TGI [28] of 3.42 µM, a TGI [29] of 2.94 µM and a TGI [30] of 10.8 µM. It also gave a TGI [31] of 3.77 µM, a TGI [32] of 9.13 µM and a TGI [33] of 8.91 µM. It also gave a TGI [34] of 7.99 µM, a TGI [35] of 3.02 µM and a TGI [36] of 3.62 µM. The TGI [37] was 3.96 µM, the TGI [38] was 2.15 µM and the TGI [39] was 4.48 µM. For the same compound, the TGI [40] was 1.22 µM, the TGI [41] was 3.56 µM and the TGI [42] was 2.73 µM. It also gave a TGI [43] of 4.54 µM, a TGI [44] of 4.22 µM and a TGI [45] of 3.43 µM. The TGI [46] was 3.99 µM, the TGI [47] was 2.3 µM and the TGI [48] was 6.72 µM. The TGI [49] was 3.85 µM, the TGI [50] was 3.9 µM and the TGI [51] was 4.51 µM. For the same compound, the TGI [52] was 2.32 µM, the TGI [53] was 4.11 µM and the TGI [54] was 4.93 µM. It also gave a TGI [55] of 3.99 µM, a TGI [56] of 2.86 µM and a TGI [57] of 1.13 µM. For the same compound, the TGI [58] was 3.06 µM and the TGI [59] was 3.53 µM.
